For data set [1], the target named is NACHT, LRR and PYD domains-containing protein 3 (Mus musculus) (UniProt Q8R4B8). The experiment in a line: Inhibition of NLRP3 inflammasome in C57BL/6 mouse BMDM cells assessed as inhibition of IL-1 beta secretion at 0.2 to 0.8 uM pretreated with Pam3CSK4 for 3 hrs followed by incubation with compound for 40 mins and later stimulated with cytosolic LPS for 16 hrs by ELISA. It is filed as cell-based. To be noted: dose 0.2-0.8 µM, time 1000.0 min.

The nature of data set [2]: Oral bioavailability in BALB/c mouse at 10 mg/kg. It is filed as ADME, organism-based. The conditions noted are these: in vivo.
The nature of data set [3]: Metabolic stability in human liver microsomes. It is filed as ADME, Microsome.
Data set [4] relates to THP-1. In words: Effect on NLRP3 protein expression in PMA-differentiated human THP-1 cells at 0.2 to 0.8 uM pretreated with LPS for 3 hrs followed by incubation with compound for 40 mins and later stimulated with nigericin for 35 mins by western blot analysis. It is filed as functional, cell-based. The conditions noted are these: dose 0.2-0.8 µM, time 75.0 min.
Data set [5] deals with Mus musculus. In words: Antiinflammatory activity against DSS-induced ulcerative colitis C57BL/6 mouse model assessed as decrease in inflammatory cell infiltration in colon at 10 to 30 mg/kg, ip fed with DSS for 6 days followed by administration with compound for 5 days and measured on day 11 by H and E staining based analysis. The conditions noted are these: dose 10-30 mg/kg, time 5.0 day. It is filed as functional, organism-based.

In data set [6] the target is NACHT, LRR and PYD domains-containing protein 3 (Mus musculus, UniProt Q8R4B8). In words: Inhibition of NLRP3 inflammasome in C57BL/6 mouse BMDM cells assessed as inhibition of LPS/nigericin-induced IL-1 beta secretion pretreated with LPS for 3 hrs followed by incubation with compound for 40 mins and later stimulated with nigericin for 35 mins by ELISA. It is filed as cell-based.

The test system of data set [7] is THP-1. The experiment in a line: Effect on pro-IL-1beta protein expression in PMA-differentiated human THP-1 cells at 0.2 to 0.8 uM pretreated with compound for 40 mins followed by LPS challenge for 3 hrs by western blot analysis. It is filed as functional, cell-based. To be noted: dose 0.2-0.8 µM, time 220.0 min.
A short description of data set [8]: Apparent clearance in BALB/c mouse at 10 mg/kg, po. It is filed as ADME, organism-based. To be noted: in vivo.
The test system of data set [9] is Mus musculus. In words: Antiinflammatory activity against DSS-induced ulcerative colitis C57BL/6 mouse model assessed as decrease in IL-1 beta level in colon at 10 to 30 mg/kg, ip fed with DSS for 6 days followed by administration with compound for 5 days and measured on day 11 by ELISA. The conditions noted are these: dose 10-30 mg/kg, time 5.0 day. Format: functional, organism-based.

Data set [10] is described as follows: MRT (0 to t) in BALB/c mouse at 10 mg/kg, po. Format: ADME, organism-based. The conditions noted are these: in vivo.
For data set [11], the system named is THP-1. The experiment in a line: Inhibition of lysosomal damage in PMA-differentiated human THP-1 cells at 0.2 to 45 uM pretreated with LPS for 3 hrs followed by incubation with compound for 40 mins and later stimulated with nigericin for 35 mins by AO staining based analysis. The conditions noted are these: dose 0.2-45 µM, time 75.0 min. Format: functional, cell-based.

In data set [12] the test system is Mus musculus. In words: Antiinflammatory activity against DSS-induced ulcerative colitis C57BL/6 mouse model assessed as improvement in crypt deformation in colon at 10 to 30 mg/kg, ip fed with DSS for 6 days followed by administration with compound for 5 days and measured on day 11 by H and E staining based analysis. It is filed as functional, organism-based. The conditions noted are these: dose 10-30 mg/kg, time 5.0 day.

Data set [13] in a line: Half life in BALB/c mouse at 10 mg/kg, iv. To be noted: in vivo. It is filed as ADME, organism-based.
Data set [14] relates to THP-1. In words: Effect on mitochondrial ROS production in PMA-differentiated human THP-1 cells at 0.2 to 45 uM pretreated with LPS for 3 hrs followed by incubation with compound for 40 mins and later stimulated with nigericin for 35 mins by MitoSOX staining based immunofluorescence analysis. Format: functional, cell-based. To be noted: dose 0.2-45 µM, time 75.0 min.
A short description of data set [15]: Cmax in BALB/c mouse at 10 mg/kg, po. To be noted: in vivo. Further details: dose 10 mg/kg, route po. Format: ADME, organism-based.
The test system of data set [16] is THP-1. In words: Inhibition of Cl- efflux in PMA-differentiated human THP-1 cells at 0.8 to 45 uM pretreated with LPS for 3 hrs followed by incubation with compound for 40 mins and later stimulated with nigericin for 35 mins. Format: functional, cell-based. The conditions noted are these: dose 0.8-45 µM, time 75.0 min.

Active and inactive are the calls of the source. The calls are words filed in the database; no cut-off is given here.

Chain of NACHT, LRR and PYD domains-containing protein 3 (Q8R4B8 whole entry, the tested form may be a part): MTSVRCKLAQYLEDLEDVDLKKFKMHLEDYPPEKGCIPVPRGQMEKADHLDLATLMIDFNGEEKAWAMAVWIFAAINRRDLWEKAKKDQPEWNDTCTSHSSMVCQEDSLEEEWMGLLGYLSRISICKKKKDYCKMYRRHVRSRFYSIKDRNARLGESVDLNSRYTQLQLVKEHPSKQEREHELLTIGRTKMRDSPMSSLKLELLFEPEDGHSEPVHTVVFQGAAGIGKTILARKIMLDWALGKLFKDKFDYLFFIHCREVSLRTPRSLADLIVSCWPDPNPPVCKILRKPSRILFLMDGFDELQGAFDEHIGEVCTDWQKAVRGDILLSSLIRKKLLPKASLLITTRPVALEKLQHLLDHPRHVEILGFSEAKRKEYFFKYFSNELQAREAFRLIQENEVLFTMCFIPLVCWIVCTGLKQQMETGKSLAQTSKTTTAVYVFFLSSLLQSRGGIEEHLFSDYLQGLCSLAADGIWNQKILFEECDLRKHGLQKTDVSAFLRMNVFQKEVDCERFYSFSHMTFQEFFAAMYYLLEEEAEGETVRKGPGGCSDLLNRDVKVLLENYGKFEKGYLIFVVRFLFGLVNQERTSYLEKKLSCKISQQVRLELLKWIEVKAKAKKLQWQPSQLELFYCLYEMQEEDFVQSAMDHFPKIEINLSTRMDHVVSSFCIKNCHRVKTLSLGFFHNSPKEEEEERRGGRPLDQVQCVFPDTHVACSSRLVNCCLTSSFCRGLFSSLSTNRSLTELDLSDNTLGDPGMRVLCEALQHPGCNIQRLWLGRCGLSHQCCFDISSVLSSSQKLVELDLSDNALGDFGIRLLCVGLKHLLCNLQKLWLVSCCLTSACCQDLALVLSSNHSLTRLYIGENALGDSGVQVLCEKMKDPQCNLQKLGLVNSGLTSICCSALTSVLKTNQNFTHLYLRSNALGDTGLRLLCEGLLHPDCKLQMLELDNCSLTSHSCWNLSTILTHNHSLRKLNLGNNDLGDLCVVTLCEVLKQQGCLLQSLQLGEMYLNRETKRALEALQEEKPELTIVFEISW
Chain of NACHT, LRR and PYD domains-containing protein 3 (Mus musculus) (Q8R4B8 whole entry, the tested form may be a part): as above

As for `CC(C)c1nn(Cc2nnc(-c3ccc(C(F)(F)F)nc3Cl)o2)c(=O)c2cc3sc(Cl)cc3n12`, the inhibition result in data set [1] was “Active”. In data set [2], this compound yielded a bioavailability of 22.5%. The results for the half-life in data set [3] and in data set [13] were 0.525 h and 2.06 h, respectively. The result in the data set with THP-1 [4], with THP-1 [7] and in the data set on THP-1 [14] was inactive. Moreover, the result with Mus musculus [5], in the data set on Mus musculus [9] and with Mus musculus [12] was Active. Besides, in data set [6], the IC50 is 380 nM. In addition, in data set [8], the apparent clearance CL/F was 144 mL/min/kg. The MRT last in [10] is 3.27 h. Further, the inhibition result in the data set on THP-1 [11] and in the data set with THP-1 [16] was “inactive” throughout. This compound also yielded a Cmax in [15] of 437 ng/mL.

These data come from ChEMBL document CHEMBL5365532, “Discovery of Triazinone Derivatives as Novel, Specific, and Direct NLRP3 Inflammasome Inhibitors for the Treatment of DSS-Induced Ulcerative Colitis” (J Med Chem, 2023).
